# Patent US20240285586A1, “METHODS FOR TREATING BACTERIAL CELL POPULATIONS” (THE HONG KONG POLYTECHNIC UNIVERSITY, priority 2021, published 2024)
# Key:
# [1] = system: E. coli BW25113; assay: Starvation-induced tolerance assay, wild type E. coli; format: cell-based, Escherichia coli
# Method: (§1) Tolerance assay. […] Standard serial dilution and plating on LB agar was performed before and after ampicillin treatment for 4 hrs, 2 days, 4 days and 6 days to determine the fraction of the test population that survived at different time points during the course of treatment.
# (§2) Standard serial dilution and plating on LB agar was performed on samples collected every 24 hrs to assess changes in the size of the sub-population that survived during the treatment process.
# (§3) Upon reaching the exponential phase, bacteria were washed and re-suspended in saline (0.9% NaCl), and then incubated at 37° C. under constant shaking (250 rpm/min) for 24 hrs. […] Standard serial dilution and plating on LB agar were performed before and after ampicillin treatment for 4 hrs, 1 day, 2 days and 4 days to determine the fraction of the test population that survived at different time points during the course of treatment.
# [2] = system: K. pneumoniae; assay: Starvation-induced tolerance assay, K. pneumoniae; format: cell-based, Klebsiella pneumoniae
# Method: as §1, §2, §3
# [3] = system: A. baumannii; assay: Starvation-induced tolerance assay, A. baumannii; format: cell-based, Acinetobacter baumannii
# Method: as §1, §2, §3
# [4] = system: P. aeruginosa; assay: Starvation-induced tolerance assay, P. aeruginosa; format: cell-based, Pseudomonas aeruginosa
# Method: as §1, §2, §3
# [5] = system: S. aureus; assay: Starvation-induced tolerance assay, S. aureus; format: cell-based, Staphylococcus aureus
# Method: as §1, §2, §3
# [6] = system: S. typhimurium; assay: Starvation-induced tolerance assay, S. typhimurium; format: cell-based
# Method: as §1, §2, §3
# [7] = system: carbapenem resistant E. coli J53 strain which expressed the carbapenemase NDM-1; assay: Starvation-induced tolerance assay, carbapenem-resistant E. coli; format: cell-based, Escherichia coli; settings: econazole + sub-lethal dose of meropenem (40 μg/ml), nutrient starvation
# Method: Upon reaching the exponential phase, bacteria were washed and re-suspended in saline (0.9% NaCl), and then incubated at 37° C. under constant shaking (250 rpm/min) for 24 hrs. […]
# [8] = system: S. aureus ATCC29213; assay: Minimal inhibitory concentration, S. aureus; format: cell-based; settings: Staphylococcus aureus, 16 hours, Mueller Hinton Broth
# Source text: (§4) Determination of Minimal Inhibitory Concentrations (MICs).
# [9] = system: Gram negative strains; assay: Minimal inhibitory concentration, Gram negative strains; format: cell-based; settings: all Gram negative test strains
# Source text: as §4
# [10] = system: E. coli; assay: Membrane potential assay DiSC3(5), E. coli; format: cell-based, Escherichia coli; settings: econazole 40 μM, cells starved 24 hrs
# Method: Membrane potential assay. The transmembrane electrical potential was measured by using a membrane potential-sensitive probe, DiSC3(5). Bacterial population in either the exponential phase (OD600 of 0.2) or under 24 hrs starvation (resuspended in saline) were collected by centrifugation (6000×g, 2 mins), washed twice and re-suspended in PBS (pH 7.4), and then adjusted to OD600 of 0.2. KCl and DiSC3(5) were added until final concentration of 100 mM and 1 μM was respectively reached, followed by incubation at room temperature for 25 mins in the dark to allow the dye to penetrate through the outer membrane and produce a quenching effect. […] The fluorescence reading was monitored by using a Clariostar Microplate Reader (BMG LABTECH) at an excitation wavelength of 622±10 nm and an emission wavelength of 670±10 nm for 10 mins. Upon depolarization, the dye was rapidly released into the medium, resulting in dequenching and facilitating detection fluorometrically. […] The sample preparation method is same as that prior to testing with the Microplate Reader except for the last step. Briefly, cells were washed with PBS three times before confocal observation to remove extracellular DiSC3(5) dye. […] DiSC3(5) was excited by 638 nm laser and fluorescence was detected by HyD detector at emission wavelength 675±25 nm. The images were acquired and analyzed by the Leica Application Suite X (LAS X) software. […]
# [11] = system: S. aureus; assay: Membrane potential assay DiSC3(5), S. aureus; format: cell-based, Staphylococcus aureus; settings: econazole 40 μM, cells starved 24 hrs
# Method: (§5) Assessment of effect of econazole on membrane potential. Fluorometric measurement of membrane potential of bacterial cells was performed using the voltage-sensitive dye DiSC3(5). The test organisms were first subjected to starvation for 24 hrs and then centrifuged and washed twice with PBS. The cell pellet was resuspended in PBS containing 100 mM of KCl to a final concentration of OD 0.2. The cells were incubated with 1 μM of DiSC3(5) for 5 min under shaking in dark. The cells were treated with econazole (40 μM); a no treatment control was included. The fluorometric measurements were carried out on black polystyrene microtiter plates using a Clariostar Microplate Reader (BMG LABTECH), with excitation wavelength at 610 nm and emission wavelength at 660 nm.
# [12] = system: P. aeruginosa; assay: Membrane potential assay DiSC3(5), P. aeruginosa; format: cell-based, Pseudomonas aeruginosa; settings: econazole 40 μM, cells starved 24 hrs
# Method: as §5
# [13] = system: E. coli tolerant cells; assay: Scanning electron microscopy of tolerant cells; format: cell-based, Escherichia coli; settings: for cell morphology under SEM: 24 hours
# Method: Electron microscopy analysis. E. coli which had been subjected to starvation for 24 hours were treated with econazole alone, ampicillin alone and a combination of econazole and ampicillin for 24 hours, followed by examination under scanning electron microscopy (SEM). Cells treated with saline were included as negative control. Briefly, bacterial cells were fixed in 0.4% polyoxymethylene overnight and then in Osmium tetroxide (OsO4) for 2 hrs, followed by washing for three times with PBS. The cells were then dehydrated using pure ethanol, and infiltrated and embedded in Spurr resin for examination by SEM.
# [14] = system: E. coli BW25113; assay: Mouse deep-seated thigh infection model; format: in vivo, Escherichia coli
# Method: NIH mice were purchased from the Guangdong Center for Experimental Animals, Guangzhou, China. Male mice at ˜6 weeks of age with a weight of ˜20 g were used in the experiments, 6 mice per group. The animals were allowed to acclimate to the housing facility for 5 days. The mice were made neutropenic by administering 150 mg/kg cyclophosphamide 3 days and 1 day before infection. An inoculum of 1×10^6 CFU of E. coli BW25113 was injected into the right thigh of the mouse. At 24 hrs post-infection, the mice in each group received ceftazidime (20 mg/kg), econazole (20 mg/kg) or ceftazidime combining econazole treatment (i.p.) every 12 hrs for 72 hrs randomly. The mice were then euthanized and the infected thighs were aseptically excised and homogenized in PBS; the number of E. coli present in the samples was enumerated by serial dilution, spreading on LB plates, and incubation at 37° C. overnight. The population size of bacteria that survived different treatments was recorded, compared and analyzed by one-way ANOVA and post hoc Tukey test. The data were presented by using the Graph Pad Prism software. All experimental protocols followed the standard operating procedures of the Biosafety level 2 animal facilities approved by the Animal Ethics Committee of The City University of Hong Kong.
# [15] = system: S. typhimurium PY1; assay: Mouse peritonitis infection (tolerance sepsis) model; format: in vivo
# Method: NIH male mice of about six-weeks-old with body weight of ˜20 g were used, 6 mice per group. The animals were allowed to acclimate to the housing facility for 5 days. The mice were made neutropenic by administering 150 mg/kg cyclophosphamide 3 days and 1 day before infection. Different amounts of S. typhimurium strain PY01 (2.8×10^5 CFU, 7.6×10^5 CFU or 1.5×10^6 CFU) were inoculated into the animals via intraperitoneal injection. The mice were subjected to ceftazidime (20 mg/kg), econazole (20 mg/kg) or ceftazidime combining econazole treatment (i.p.) 24 h after inoculation, at 12 hrs intervals for 72 hrs randomly. The mortality rate of the test mice was recorded every 12 hrs. After 72 h of treatment, live mice were euthanized and subjected to peritoneal washes which involved injection of 2 mL of saline into the intraperitoneal space, followed by abdominal massage. The abdomen was then cut open and 200 μL of peritoneal fluid were collected and serially diluted in saline. A 100 μL portion of each dilution was spread on LB plates, followed by incubation overnight at 37° C. Colonies were counted to determine the bacterial load in the test samples, which were expressed as CFU/ml. Statistical analysis and ethic approval were the same as described above.
# [16] = system: E. coli J53 (mcr-1); assay: MIC of colistin in presence and absence of compound, broth dilution; format: cell-based, Escherichia coli; settings: antibiotic resistant E. coli (FIG. 20)
# [17] = general statement; cited from earlier work
structure (smiles),measurement,setting,value
Clc1ccc(COC(Cn2ccnc2)c2ccc(Cl)cc2Cl)cc1 (stereo not drawn) [econazole],time to eradication of the entire tolerant population,[1]; econazole 40 μM + ampicillin 10×MIC,24 h
same,effect of co-administration with ampicillin,"[1]; econazole + ampicillin, E. coli",pronounced bactericidal synergistic effect
same,treatment time at which all tolerant cells were killed,[1]; econazole + ciprofloxacin (1 μg/ml),24 h
same,size of bacterial population that survived,"[1]; econazole + ciprofloxacin (1 μg/ml), 4 hrs",about 200 CFU/mL
same,treatment time at which all tolerant cells were killed,[1]; econazole + gentamicin (20 μg/ml),24 h
same,size of bacterial population that survived,"[1]; econazole + gentamicin (20 μg/ml), 4 hrs",about 200 CFU/mL
same,size of the population that survived,"[1]; econazole alone, 4 hrs",about 1.7×10^5 CFU/mL
same,population size,"[1]; econazole alone, 24 hrs",~1×10^4 CFU/mL
same,effect of co-administration with ampicillin,[2]; econazole + ampicillin,pronounced bactericidal synergistic effect
same,time to eradication of the entire tolerant sub-population,[2]; econazole + ampicillin,≤ 24 h
same,killing of tolerant cells,"[2]; econazole alone, 40 μM",slight killing effect
same,effect of co-administration with ampicillin,[3]; econazole + ampicillin,pronounced bactericidal synergistic effect
same,time to eradication of the entire tolerant sub-population,[3]; econazole + ampicillin,≤ 24 h
same,killing of tolerant cells,"[3]; econazole alone, 40 μM",slight killing effect
same,effect of co-administration with ampicillin,[4]; econazole + ampicillin,pronounced bactericidal synergistic effect
same,time to eradication of the tolerant sub-population,[4]; econazole + ampicillin,≤ 96 h
same,killing of tolerant cells,"[4]; econazole alone, 40 μM",slight killing effect
same,effect of co-administration with ampicillin,[5]; econazole + ampicillin,pronounced bactericidal synergistic effect
same,time to eradication of tolerant cells,"[5]; econazole alone, 40 μM",≤ 96 h
same,effect of co-administration with ampicillin,[6]; econazole + ampicillin,pronounced bactericidal synergistic effect
same,time to eradication of the tolerant sub-population,[6]; econazole + ampicillin,≤ 96 h
same,size of the tolerant population,"[6]; econazole + ceftazidime (100 μg/ml), within 96 hrs (FIG. 16F)",~500 CFU/mL
same,killing of tolerant cells,"[6]; econazole alone, 40 μM",slight killing effect
same,effect on the tolerant sub-population,[7],eradicate the tolerant sub-population
same,MIC,[8],40 µM
same,MIC,[9],> 160 µM
same,effect on PMF (DiSC3(5) fluorescence),[10],caused dissipation of PMF
same,effect on PMF (DiSC3(5) fluorescence),[11],caused dissipation of PMF
same,effect on PMF (DiSC3(5) fluorescence),[12],caused dissipation of PMF
same,cell morphology under SEM,[13]; econazole 40 μM + ampicillin 100 μg/ml,cell membrane structure was severely damaged
same,cell morphology under SEM,[13]; econazole 40 μM alone,"rough cell surface, as well as leakage of intracellular material"
same,membrane damage or morphological changes,"[13]; econazole, exponentially growing cells (data not shown)",not found to cause any detectable membrane damage or morphological changes
same,eradication of E. coli tolerant cells compared with ceftazidime (20 mg/Kg) alone,"[14]; econazole 20 mg/kg + ceftazidime 20 mg/Kg i.p. every 12 hrs for 72 hrs, P=0.031",significantly more
same,eradication of E. coli tolerant cells compared with ceftazidime (20 mg/Kg) alone,"[14]; econazole alone 20 mg/kg i.p. every 12 hrs for 72 hrs, P=0.026",significantly more
same,protection of the test animals compared with ceftazidime alone,"[15]; ceftazidime + econazole (20 mg/kg each), inoculation of 7.6×10^5 CFU",slightly more effective
same,rate of eradication of PY1 tolerant cells in surviving mice,"[15]; ceftazidime + econazole, 7.6×10^5 CFU, after 72 h, P<0.0001",significantly higher
same,survival rate,"[15]; econazole 20 mg/kg + ceftazidime 20 mg/Kg, 1.5×10^6 CFU",80%
same,effect of co-administration with colistin,[16],bactericidal synergistic effect
same,toxicity or safety in human,[17],proven safe
